# pIC50: −log10 of the molar value.
# Target: IDH1 R132C (Homo sapiens (Human), UniProt O75874, R132C)
# Experiment: In vitro NADPH depletion assay for IDH1m R132C inhibitors
# Type: biochemical
# Details: IDH1 R132C enzyme, read-out: IDH R132C IC50
# Procedure: (§1) A test compound is prepared as 10 mM stock in DMSO and diluted to 50× final concentration in DMSO, for a 50 μl reaction mixture. IDH enzyme activity converting alpha-ketoglutarate to 2-hydroxyglutaric acid is measured using a NADPH depletion assay. In the assay the remaining cofactor is measured at the end of the reaction with the addition of a catalytic excess of diaphorase and resazurin, to generate a fluorescent signal in proportion to the amount of NADPH remaining. […] The reaction is started with the addition of 10 μl of Substrate Mix ([…], 5 mM alpha-ketoglutarate, in Assay Buffer) and the mixture is incubated for 90 minutes at room temperature.
# The concentration of NADPH and alpha-ketoglutarate in the Substrate Buffer is 20 μM and 1 mM, respectively.
# IDH1 R132C, sequence (O75874 whole entry R132C): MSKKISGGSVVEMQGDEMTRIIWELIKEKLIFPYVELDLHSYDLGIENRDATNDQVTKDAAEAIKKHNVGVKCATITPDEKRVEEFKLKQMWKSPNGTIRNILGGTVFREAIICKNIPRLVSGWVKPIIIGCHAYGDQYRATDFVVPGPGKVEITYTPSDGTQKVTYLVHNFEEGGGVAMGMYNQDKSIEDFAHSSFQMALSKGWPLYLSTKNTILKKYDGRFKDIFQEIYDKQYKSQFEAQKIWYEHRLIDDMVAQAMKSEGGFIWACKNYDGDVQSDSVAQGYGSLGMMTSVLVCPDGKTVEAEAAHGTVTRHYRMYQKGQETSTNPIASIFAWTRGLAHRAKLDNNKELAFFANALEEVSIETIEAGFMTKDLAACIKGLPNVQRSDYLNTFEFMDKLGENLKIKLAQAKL
row,pIC50,Compound
1,6.30 to 7.00,O=C(NC1CC(F)(F)C1)[C@H](c1ccccc1Cl)N(C(=O)[C@@H]1CCC(=O)N1c1cccc(F)n1)c1cccc(F)c1 [Compound 11]
2,6.30 to 7.00,O=C(NC1CC(F)(F)C1)[C@H](c1ccccc1Cl)N(C(=O)[C@@H]1CCC(=O)N1c1nccc2ccccc12)c1cccc(F)c1 [Compound 16]

# Target: IDH1 R132H (Homo sapiens (Human), UniProt O75874, R132H)
# Experiment: In vitro NADPH depletion assay for IDH1m R132H inhibitors
# Type: biochemical
# Details: IDH1 R132H enzyme, read-out: IDH R132H IC50
# Procedure: as §1
# IDH1 R132H, sequence (O75874 whole entry R132H): as the sequence (O75874 whole entry R132C) above, with C132H counted along it
row,pIC50,Compound
1,6.30 to 7.00,O=C(NC1CC(F)(F)C1)[C@H](c1ccccc1Cl)N(C(=O)[C@@H]1CCC(=O)N1c1cccc(F)n1)c1cccc(F)c1 [Compound 11]
2,6.30 to 7.00,COc1cccnc1N1C(=O)CC[C@H]1C(=O)N(c1cccc(F)c1)[C@H](C(=O)NC1CC(F)(F)C1)c1ccccc1Cl [Compound 17]
3,6.30 to 7.00,O=C(NC1CC(F)(F)C1)[C@H](c1ccccc1Cl)N(C(=O)[C@@H]1CCC(=O)N1c1nccc2ccccc12)c1cccc(F)c1 [Compound 16]
4,6.30 to 7.00,O=C(NC1CC(F)(F)C1)C(c1ccccc1Cl)N(C(=O)[C@@H]1CCC(=O)N1c1cccnc1)c1cccc(F)c1 (stereo partly shown) [Compound 10]

# System: U87MG cells
# Experiment: Cellular assay, inhibition of 2-HG production in U87MG cells
# Type: cell-based
# Details: 48 hours
# Procedure: Cells (HT1080 or U87MG) are grown in T125 flasks in DMEM containing 10% FBS, 1× penicillin/streptomycin and 500 ug/mL G418 (present in U87MG cells only). They are harvested by trypsin and seeded into 96 well white bottom plates at a density of 5000 cell/well in 100 ul/well in DMEM with 10% FBS. […] Cells are incubated overnight at 37° C. in 5% CO2. The next day test compounds are made up at 2× the final concentration and 100 ul are added to each cell well. The final concentration of DMSO is 0.2% and the DMSO control wells are plated in row G. The plates are then placed in the incubator for 48 hours. […] The cell plate is placed back in the incubator for another 24 hours. At 72 hours post compound addition, 10 mL/plate of Promega Cell Titer Glo reagent is thawed and mixed. The cell plate is removed from the incubator and allowed to equilibrate to room temperature. Then 100 ul of Promega Cell Titer Glo reagent is added to each well of media. The cell plate is then placed on an orbital shaker for 10 minutes and then allowed to sit at room temperature for 20 minutes. The plate is then read for luminescence with an integration time of 500 ms.
row,Compound,pIC50
1,"(S)-tert-butyl 3-(((S)-1-(2-chlorophenyl)-2-((3,3-difluorocyclobutyl) amino)-2-oxoethyl)(3,5-difluorophenyl)carbamoyl)-5-oxopiperazine-1-carboxylate [Compound 97]",> 7.00
2,"(S)—N—((S)-1-(2-Chlorophenyl)-2-(3,3-difluorocyclobutylamino)-2-oxoethyl)-N-(3-cyano-5-fluorophenyl)-3-(3-cyanophenyl)-2-oxooxazolidine-4-carboxamide [Compound 134]",> 7.00
3,"N#Cc1cccc(N2C(=O)OC[C@H]2C(=O)N(c2cccc3cn[nH]c23)[C@H](C(=O)NC2CCC(F)(F)CC2)c2ccccc2Cl)c1 [Compound 142, (S)—N—((S)-1-(2-Chlorophenyl)-2-(4,4-difluorocyclohexylamino)-2-oxoethyl)-3-(3-cyanophenyl)-N-(1H-indazol-7-yl)-2-oxooxazolidine-4-carboxamide]",> 7.00
4,"(S)—N—((S)-1-(2-Chlorophenyl)-2-(3,3-difluorocyclobutylamino)-2-oxoethyl)-1-(3-cyano-phenyl)-N-(1H-indazol-7-yl)-5-oxopyrrolidine-2-carboxamide [Compound 186]",> 7.00
5,"(S)—N—((S)-1-(2-Chlorophenyl)-2-((3,3-difluorocyclobutyl)amino)-2-oxoethyl)-1-(4-cyanopyridin-2-yl)-N-(1H-indazol-6-yl)-5-oxopyrrolidine-2-carboxamide [Compound 205]",> 7.00
6,"(S)—N—((S)-1-(2-Chlorophenyl)-2-((4,4-difluorocyclohexyl)amino)-2-oxoethyl)-1-(4-cyanopyridin-2-yl)-N-(1H-indazol-6-yl)-5-oxopyrrolidine-2-carboxamide [Compound 136]",> 7.00
7,"(S)-1-(4-Cyanopyridin-2-yl)-N—((S)-1-(2,4-dichlorophenyl)-2-((3,3-difluorocyclobutyl)-amino)-2-oxoethyl)-N-(3,5-difluorophenyl)-5-oxopyrrolidine-2-carboxamide [Compound 196]",> 7.00

# Source: US9850277B2, “Therapeutically active compositions and their methods of use” (AGIOS PHARMACEUTICALS, INC, priority 2013, dated 2017)
